Laboratory results published in PMC9234961 (Journal of Medicinal Chemistry, 2022).
Where two headings read alike, the source gives them in different places.

Experiments:
kinases (468) [1] = target: kinases (468) (Homo sapiens, UniProt Q12851); conditions: MAP4K2; 1000 nM
kinases (468) [2] = target: kinases (468) (Homo sapiens, UniProt O95819); conditions: MAP4K4; 1000 nM
kinases (468) [3] = target: kinases (468) (Homo sapiens, UniProt Q7KZI7); conditions: MARK2; 1000 nM
kinases (468) [4] = target: kinases (468) (Homo sapiens, UniProt P37173); conditions: kinase TGFBR2 (Entrez TGFBR2); compound concentration 1000 nM
kinases (468) [5] = target: kinases (468) (Homo sapiens, UniProt P11802); conditions: 1000 nM
kinases (468) [6] = target: kinases (468) (Homo sapiens, UniProt Q9UKI8); conditions: kinase TLK1 (Entrez TLK1); compound concentration 1000 nM
kinases (468) [7] = target: kinases (468) (Homo sapiens, UniProt P07949, V804M); conditions: kinase RET(V804M) (Entrez RET); compound concentration 1000 nM
kinases (468) [8] = target: kinases (468) (Homo sapiens, UniProt O15146); conditions: MUSK; 1000 nM
kinases (468) [9] = target: kinases (468) (Homo sapiens, UniProt O00238); conditions: BMPR1B; 1000 nM
kinases (468) [10] = target: kinases (468) (Homo sapiens, UniProt O15530); conditions: PDPK1; 1000 nM
kinases (468) [11] = target: kinases (468) (Homo sapiens, UniProt Q9UPE1); conditions: kinase SRPK3 (Entrez SRPK3); compound concentration 1000 nM
kinases (468) [12] = target: kinases (468) (Homo sapiens, UniProt P27037); conditions: ACVR2A; 1000 nM
kinases (468) [13] = target: kinases (468) (Homo sapiens, UniProt P42685); conditions: FRK; 1000 nM
kinases (468) [14] = target: kinases (468) (Homo sapiens, UniProt O75716); conditions: kinase STK16 (Entrez STK16); compound concentration 1000 nM
kinases (468) [15] = target: kinases (468) (Homo sapiens, UniProt P20794); conditions: MAK; 1000 nM
kinases (468) [16] = target: kinases (468) (Homo sapiens, UniProt Q04771); conditions: ACVR1; 1000 nM
kinases (468) [17] = target: kinases (468) (Homo sapiens, UniProt Q02750); conditions: MEK1 (MAP2K1); 1000 nM
kinases (468) [18] = target: kinases (468) (Homo sapiens, UniProt Q86Y07); conditions: kinase VRK2 (Entrez VRK2); compound concentration 1000 nM
kinases (468) [19] = target: kinases (468) (Homo sapiens, UniProt Q07002); conditions: PCTK3 (CDK18); 1000 nM
kinases (468) [20] = target: kinases (468) (Homo sapiens, UniProt Q16620); conditions: kinase TRKB (Entrez NTRK2); compound concentration 1000 nM
kinases (468) [21] = target: kinases (468) (Homo sapiens, UniProt P57059); conditions: kinase SIK (Entrez SIK1); compound concentration 1000 nM
kinases (468) [22] = target: kinases (468) (Homo sapiens, UniProt P36896); conditions: ACVR1B; 1000 nM
kinases (468) [23] = target: kinases (468) (Homo sapiens, UniProt Q9Y243); conditions: AKT3; 1000 nM
kinases (468) [24] = target: kinases (468) (Homo sapiens, UniProt Q8TDC3); conditions: BRSK1; 1000 nM
kinases (468) [25] = target: kinases (468) (Homo sapiens, UniProt O60331); conditions: PIP5K1C; 1000 nM
kinases (468) [26] = target: kinases (468) (Homo sapiens, UniProt P31152); conditions: ERK4 (MAPK4); 1000 nM
kinases (468) [27] = target: kinases (468) (Homo sapiens, UniProt Q9H1R3); conditions: MYLK2; 1000 nM
kinases (468) [28] = target: kinases (468) (Homo sapiens, UniProt P29317); conditions: EPHA2; 1000 nM
kinases (468) [29] = target: kinases (468) (Homo sapiens, UniProt Q08345); conditions: DDR1; 1000 nM
kinases (468) [30] = target: kinases (468) (Homo sapiens, UniProt P00519, H396P); conditions: 1000 nM
kinases (468) [31] = target: kinases (468) (Homo sapiens, UniProt Q96PY6); conditions: NEK1; 1000 nM
kinases (468) [32] = target: kinases (468) (Homo sapiens, UniProt P42336, E545A); conditions: PIK3CA(E545A); 1000 nM
kinases (468) [33] = target: kinases (468) (Homo sapiens, UniProt P42680); conditions: kinase TEC (Entrez TEC); compound concentration 1000 nM
kinases (468) [34] = target: kinases (468) (Homo sapiens, UniProt P00519, M351T); conditions: ABL1(M351T)-phosphorylated; 1000 nM

kinases (468) (Homo sapiens, UniProt P11802), sequence (P11802 whole entry): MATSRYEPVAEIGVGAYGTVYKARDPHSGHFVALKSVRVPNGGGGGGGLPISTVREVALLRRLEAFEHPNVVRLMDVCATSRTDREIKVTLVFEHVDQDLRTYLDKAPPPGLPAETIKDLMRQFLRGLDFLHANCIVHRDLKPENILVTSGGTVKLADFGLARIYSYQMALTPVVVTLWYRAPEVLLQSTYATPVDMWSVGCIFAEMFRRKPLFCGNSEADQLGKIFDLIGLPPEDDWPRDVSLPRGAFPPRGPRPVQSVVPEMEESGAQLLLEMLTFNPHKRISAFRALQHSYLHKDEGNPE
kinases (468) (Homo sapiens, UniProt P31152), sequence (P31152 whole entry): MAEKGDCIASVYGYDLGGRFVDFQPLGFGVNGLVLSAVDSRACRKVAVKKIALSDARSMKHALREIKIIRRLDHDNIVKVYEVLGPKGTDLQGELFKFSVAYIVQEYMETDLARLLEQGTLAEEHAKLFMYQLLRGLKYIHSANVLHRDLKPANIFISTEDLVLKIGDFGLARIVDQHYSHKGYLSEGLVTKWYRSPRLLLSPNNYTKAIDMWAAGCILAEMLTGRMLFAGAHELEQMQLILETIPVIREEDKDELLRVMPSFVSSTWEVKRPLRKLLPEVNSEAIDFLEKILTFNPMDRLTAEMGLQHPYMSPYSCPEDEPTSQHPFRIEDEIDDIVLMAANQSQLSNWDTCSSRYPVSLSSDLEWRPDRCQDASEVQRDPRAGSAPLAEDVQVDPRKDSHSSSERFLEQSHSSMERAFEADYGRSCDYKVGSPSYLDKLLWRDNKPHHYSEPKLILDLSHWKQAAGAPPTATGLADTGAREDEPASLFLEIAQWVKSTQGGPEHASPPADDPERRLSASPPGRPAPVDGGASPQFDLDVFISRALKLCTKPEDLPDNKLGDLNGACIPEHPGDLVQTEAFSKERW
kinases (468) (Homo sapiens, UniProt O15530), sequence (O15530 whole entry): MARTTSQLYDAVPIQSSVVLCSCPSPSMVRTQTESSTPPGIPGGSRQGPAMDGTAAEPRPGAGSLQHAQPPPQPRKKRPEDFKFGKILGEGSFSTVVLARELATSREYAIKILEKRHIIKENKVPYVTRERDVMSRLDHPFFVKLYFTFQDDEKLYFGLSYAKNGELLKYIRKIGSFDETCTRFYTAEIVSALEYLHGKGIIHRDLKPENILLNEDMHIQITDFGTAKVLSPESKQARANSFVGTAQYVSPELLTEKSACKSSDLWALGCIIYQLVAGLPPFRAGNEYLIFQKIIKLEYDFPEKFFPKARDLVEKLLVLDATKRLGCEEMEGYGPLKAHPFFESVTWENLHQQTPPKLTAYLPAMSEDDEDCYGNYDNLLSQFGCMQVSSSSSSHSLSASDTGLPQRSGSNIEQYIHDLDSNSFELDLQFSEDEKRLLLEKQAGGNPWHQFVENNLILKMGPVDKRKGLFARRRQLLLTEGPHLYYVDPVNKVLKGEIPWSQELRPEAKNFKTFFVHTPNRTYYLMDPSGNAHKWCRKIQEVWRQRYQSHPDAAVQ
kinases (468) (Homo sapiens, UniProt Q9UKI8), sequence (Q9UKI8 whole entry): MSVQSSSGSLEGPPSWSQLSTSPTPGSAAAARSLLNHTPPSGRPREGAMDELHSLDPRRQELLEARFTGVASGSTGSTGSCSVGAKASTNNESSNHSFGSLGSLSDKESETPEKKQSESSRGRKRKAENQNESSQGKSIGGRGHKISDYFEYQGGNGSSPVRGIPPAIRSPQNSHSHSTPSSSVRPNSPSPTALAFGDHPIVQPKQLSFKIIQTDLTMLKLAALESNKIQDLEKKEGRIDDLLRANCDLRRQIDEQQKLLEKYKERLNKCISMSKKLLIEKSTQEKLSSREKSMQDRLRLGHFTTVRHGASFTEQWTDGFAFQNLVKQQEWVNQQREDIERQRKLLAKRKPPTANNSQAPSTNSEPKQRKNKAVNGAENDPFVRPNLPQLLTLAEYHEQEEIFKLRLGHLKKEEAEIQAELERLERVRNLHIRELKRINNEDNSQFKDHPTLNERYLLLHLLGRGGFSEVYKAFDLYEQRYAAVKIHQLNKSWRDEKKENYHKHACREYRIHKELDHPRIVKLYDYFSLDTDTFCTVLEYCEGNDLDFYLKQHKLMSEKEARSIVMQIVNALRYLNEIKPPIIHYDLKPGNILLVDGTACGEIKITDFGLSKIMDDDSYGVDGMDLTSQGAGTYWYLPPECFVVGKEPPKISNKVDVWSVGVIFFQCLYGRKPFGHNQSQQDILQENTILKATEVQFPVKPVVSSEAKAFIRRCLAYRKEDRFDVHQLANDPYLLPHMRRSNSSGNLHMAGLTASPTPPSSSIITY
kinases (468) (Homo sapiens, UniProt O00238), sequence (O00238 14-502): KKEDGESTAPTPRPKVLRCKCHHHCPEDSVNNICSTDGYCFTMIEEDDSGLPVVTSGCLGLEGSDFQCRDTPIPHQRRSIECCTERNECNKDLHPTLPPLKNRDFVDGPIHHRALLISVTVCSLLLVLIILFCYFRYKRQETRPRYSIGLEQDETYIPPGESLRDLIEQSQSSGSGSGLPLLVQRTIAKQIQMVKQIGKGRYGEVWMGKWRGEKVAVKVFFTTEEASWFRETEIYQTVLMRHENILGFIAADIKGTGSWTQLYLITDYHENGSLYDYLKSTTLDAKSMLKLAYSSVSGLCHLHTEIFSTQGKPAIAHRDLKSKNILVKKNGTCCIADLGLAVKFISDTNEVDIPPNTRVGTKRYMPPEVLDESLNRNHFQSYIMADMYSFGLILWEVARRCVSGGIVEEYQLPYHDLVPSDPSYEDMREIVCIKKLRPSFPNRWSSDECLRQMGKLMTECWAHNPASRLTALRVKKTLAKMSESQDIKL
kinases (468) (Homo sapiens, UniProt Q86Y07), sequence (Q86Y07 whole entry): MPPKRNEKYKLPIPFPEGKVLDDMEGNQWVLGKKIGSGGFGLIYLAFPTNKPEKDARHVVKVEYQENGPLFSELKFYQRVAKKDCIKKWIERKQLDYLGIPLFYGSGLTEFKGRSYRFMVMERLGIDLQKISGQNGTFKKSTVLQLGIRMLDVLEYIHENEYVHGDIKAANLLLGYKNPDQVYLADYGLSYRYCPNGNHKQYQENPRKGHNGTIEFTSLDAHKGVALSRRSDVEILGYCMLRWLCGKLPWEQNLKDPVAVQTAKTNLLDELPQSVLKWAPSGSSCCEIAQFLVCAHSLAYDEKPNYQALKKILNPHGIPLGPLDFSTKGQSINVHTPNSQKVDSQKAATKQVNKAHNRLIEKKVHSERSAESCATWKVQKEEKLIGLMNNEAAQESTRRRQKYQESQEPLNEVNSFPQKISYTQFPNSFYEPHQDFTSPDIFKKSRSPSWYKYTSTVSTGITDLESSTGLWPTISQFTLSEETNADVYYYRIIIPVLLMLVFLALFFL
kinases (468) (Homo sapiens, UniProt Q12851), sequence (Q12851 whole entry): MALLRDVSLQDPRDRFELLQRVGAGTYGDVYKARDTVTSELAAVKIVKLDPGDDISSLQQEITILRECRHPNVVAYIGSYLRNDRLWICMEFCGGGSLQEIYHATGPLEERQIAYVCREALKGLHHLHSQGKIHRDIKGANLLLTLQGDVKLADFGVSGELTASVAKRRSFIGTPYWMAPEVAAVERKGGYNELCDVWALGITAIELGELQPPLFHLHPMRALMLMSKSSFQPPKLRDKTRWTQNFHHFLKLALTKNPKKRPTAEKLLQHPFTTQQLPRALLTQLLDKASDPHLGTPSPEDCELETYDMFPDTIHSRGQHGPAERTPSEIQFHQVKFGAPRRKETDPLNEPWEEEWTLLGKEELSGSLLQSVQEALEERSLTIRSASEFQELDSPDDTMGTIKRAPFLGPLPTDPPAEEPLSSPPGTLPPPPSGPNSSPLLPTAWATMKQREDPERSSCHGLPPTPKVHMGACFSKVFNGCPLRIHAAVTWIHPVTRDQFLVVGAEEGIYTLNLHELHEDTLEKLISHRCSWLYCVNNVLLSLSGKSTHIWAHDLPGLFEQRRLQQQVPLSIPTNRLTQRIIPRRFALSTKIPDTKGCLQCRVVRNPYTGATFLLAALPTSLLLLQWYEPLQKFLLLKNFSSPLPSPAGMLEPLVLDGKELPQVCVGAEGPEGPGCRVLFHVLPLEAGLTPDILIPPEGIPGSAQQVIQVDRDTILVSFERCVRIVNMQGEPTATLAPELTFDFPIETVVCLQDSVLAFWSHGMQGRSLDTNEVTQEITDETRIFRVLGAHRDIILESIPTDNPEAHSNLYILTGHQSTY
kinases (468) (Homo sapiens, UniProt Q02750), sequence (Q02750 whole entry): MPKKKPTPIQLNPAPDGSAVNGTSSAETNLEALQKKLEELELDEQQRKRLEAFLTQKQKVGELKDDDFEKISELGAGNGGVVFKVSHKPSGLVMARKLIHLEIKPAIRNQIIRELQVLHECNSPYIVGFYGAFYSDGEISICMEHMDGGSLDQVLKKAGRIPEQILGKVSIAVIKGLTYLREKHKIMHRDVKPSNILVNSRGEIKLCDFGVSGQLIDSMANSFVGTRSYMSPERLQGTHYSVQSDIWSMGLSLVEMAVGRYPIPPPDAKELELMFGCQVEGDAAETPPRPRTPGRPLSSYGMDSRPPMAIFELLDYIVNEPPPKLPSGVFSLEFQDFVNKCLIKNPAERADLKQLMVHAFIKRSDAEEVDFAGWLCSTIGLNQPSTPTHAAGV
kinases (468) (Homo sapiens, UniProt Q07002), sequence (Q07002 whole entry): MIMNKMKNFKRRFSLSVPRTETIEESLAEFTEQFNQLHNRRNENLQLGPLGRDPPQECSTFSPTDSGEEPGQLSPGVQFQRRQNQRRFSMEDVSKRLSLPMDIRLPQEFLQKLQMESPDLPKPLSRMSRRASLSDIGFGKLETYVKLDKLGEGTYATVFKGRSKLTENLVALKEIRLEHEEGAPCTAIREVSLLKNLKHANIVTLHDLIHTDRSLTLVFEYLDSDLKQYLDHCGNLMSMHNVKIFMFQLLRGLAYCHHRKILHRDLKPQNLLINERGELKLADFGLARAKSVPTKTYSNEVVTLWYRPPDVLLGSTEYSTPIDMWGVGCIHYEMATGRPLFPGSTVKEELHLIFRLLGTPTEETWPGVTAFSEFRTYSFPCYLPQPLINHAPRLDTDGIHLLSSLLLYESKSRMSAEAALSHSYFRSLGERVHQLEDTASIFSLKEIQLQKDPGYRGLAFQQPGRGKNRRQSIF

SMILES: C[C@H]1C[C@@H](O)CN(c2ncc(Cl)c(Nc3ccc4c(c3)c3c(c(=O)n4C)OCC(F)(F)[C@H](C4CC4)N3)n2)C1 [CCT373566_9A]
- Percent Control (kinases (468) [1]): 99%
- Percent Control (kinases (468) [2]): 87%
- Percent Control (kinases (468) [3]): 93%
- Percent Control (kinases (468) [4]): 100%
- Percent Control (kinases (468) [5]; CDK4-cyclinD1): 94%
- Percent Control (kinases (468) [5]; CDK4-cyclinD3): 95%
- Percent Control (kinases (468) [5]; CDK4): 100%
- Percent Control (kinases (468) [6]): 87%
- Percent Control (kinases (468) [7]): 97%
- Percent Control (kinases (468) [8]): 100%
- Percent Control (kinases (468) [9]): 97%
- Percent Control (kinases (468) [10]): 100%
- Percent Control (kinases (468) [11]): 90%
- Percent Control (kinases (468) [12]): 82%
- Percent Control (kinases (468) [13]): 100%
- Percent Control (kinases (468) [14]): 88%
- Percent Control (kinases (468) [15]): 93%
- Percent Control (kinases (468) [16]): 85%
- Percent Control (kinases (468) [17]): 90%
- Percent Control (kinases (468) [18]): 89%
- Percent Control (kinases (468) [19]): 99%
- Percent Control (kinases (468) [20]): 97%
- Percent Control (kinases (468) [21]): 98%
- Percent Control (kinases (468) [22]): 100%
- Percent Control (kinases (468) [23]): 93%
- Percent Control (kinases (468) [24]): 96%
- Percent Control (kinases (468) [25]): 91%
- Percent Control (kinases (468) [26]): 100%
- Percent Control (kinases (468) [27]): 100%
- Percent Control (kinases (468) [28]): 99%
- Percent Control (kinases (468) [29]): 100%
- Percent Control (kinases (468) [30]; ABL1(H396P)-nonphosphorylated): 83%
- Percent Control (kinases (468) [30]; ABL1(H396P)-phosphorylated): 94%
- Percent Control (kinases (468) [31]): 98%
- Percent Control (kinases (468) [32]): 100%
- Percent Control (kinases (468) [33]): 94%
- Percent Control (kinases (468) [34]): 90%
